From ChEMBL document CHEMBL3091421, “Discovery of benzo[d]imidazo[5,1-b]thiazole as a new class of phosphodiesterase 10A inhibitors” (Bioorg Med Chem Lett, 2013)

Experiments:
[1] = Plasma concentration in Sprague-Dawley rat at 10 mg/kg, po after 30 mins; format: ADME, organism-based; parameters: dose 10 mg/kg, route oral
[2] = Drug uptake in Sprague-Dawley rat brain at 10 mg/kg, po after 30 mins; format: ADME, organism-based; parameters: dose 10 mg/kg, route oral; settings: read-out: Drug uptake
[3] = system: Mus musculus; test: Antipsychotic activity in ip dosed CD-1 mouse assessed as reduction in apomorphine-induced climbing behavior administered 15 mins prior to apomorphine-challenge measured immediately relative to vehicle-treated control; format: functional; settings: CD-1, ip
[4] = system: Rattus norvegicus; test: Antipsychotic activity in Sprague-Dawley rat assessed as reduction in quipazine-induced head-twitches at 6 mg/kg, ip administered 15 mins prior to quipazine-challenge measured immediately relative to vehicle-treated control; format: functional; parameters: scale not given: the % may be the effect or the level left; settings: route intraperitoneal
[5] = system: Rattus norvegicus; test: Antipsychotic activity in Sprague-Dawley rat assessed as reduction in quipazine-induced head-twitches at 1 mg/kg, ip administered 15 mins prior to quipazine-challenge measured immediately relative to vehicle-treated control; format: functional; parameters: scale not given: the % may be the effect or the level left; settings: route intraperitoneal
[6] = system: Rattus norvegicus; test: Antipsychotic activity in Sprague-Dawley rat conditioned avoidance response model assessed as reduction in avoidance at 1 mg/kg, ip after 15 mins relative to vehicle-treated control; format: functional; parameters: scale not given: the % may be the effect or the level left; settings: route intraperitoneal
[7] = system: Rattus norvegicus; test: Antipsychotic activity in ip dosed Sprague-Dawley rat psychosis model assessed as inhibition of MK-801-induced ataxia administered 5 mins prior to MK-801-challenge measured after 15 mins up to 1 hr relative to vehicle-treated control; format: functional, organism-based
[8] = system: Rattus norvegicus; test: Antipsychotic activity in Sprague-Dawley rat psychosis model assessed as inhibition of MK-801-induced ataxia at 10 mg/kg, ip administered 5 mins prior to MK-801-challenge measured after 15 mins up to 1 hr relative to vehicle-treated control; format: functional; settings: route intraperitoneal
[9] = system: Rattus norvegicus; test: Antipsychotic activity in Sprague-Dawley rat psychosis model assessed as inhibition of MK-801-induced ataxia at 6 mg/kg, ip administered 5 mins prior to MK-801-challenge measured after 15 mins up to 1 hr relative to vehicle-treated control; format: functional; settings: route intraperitoneal
[10] = system: Rattus norvegicus; test: Antipsychotic activity in Sprague-Dawley rat psychosis model assessed as inhibition of MK-801-induced stereotypy at 6 mg/kg, ip administered 5 mins prior to MK-801-challenge measured after 15 mins up to 1 hr relative to vehicle-treated control; format: functional; settings: route intraperitoneal
[11] = system: Rattus norvegicus; test: Antipsychotic activity in Sprague-Dawley rat psychosis model assessed as inhibition of MK-801-induced locomotion at 10 mg/kg, ip administered 5 mins prior to MK-801-challenge measured after 15 mins up to 1 hr relative to vehicle-treated control; format: functional; settings: route intraperitoneal
[12] = system: Rattus norvegicus; test: Antipsychotic activity in Sprague-Dawley rat psychosis model assessed as inhibition of MK-801-induced locomotion at 3 mg/kg, ip administered 5 mins prior to MK-801-challenge measured after 15 mins up to 1 hr relative to vehicle-treated control; format: functional; settings: route intraperitoneal
[13] = system: Rattus norvegicus; test: Antipsychotic activity in Sprague-Dawley rat psychosis model assessed as inhibition of MK-801-induced locomotion at 0.3 mg/kg, ip administered 5 mins prior to MK-801-challenge measured after 15 mins up to 1 hr relative to vehicle-treated control; format: functional; settings: route intraperitoneal
[14] = system: Rattus norvegicus; test: Antipsychotic activity in Sprague-Dawley rat psychosis model assessed as inhibition of MK-801-induced hyperlocomotion at 30 mg/kg, po administered 5 mins prior to MK-801-challenge measured after 15 mins up to 1 hr; format: functional
[15] = organism: Homo sapiens; test: Selectivity ratio of IC50 for PDE9A2 (unknown origin) to IC50 for human recombinant PDE10A
[16] = organism: Homo sapiens; test: Selectivity ratio of IC50 for PDE8A (unknown origin) to IC50 for human recombinant PDE10A
[17] = target: High affinity cGMP-specific 3',5'-cyclic phosphodiesterase 9A (Homo sapiens) (UniProt O76083); test: Inhibition of PDE9A2 (unknown origin) using [3H]-cGMP as substrate at 10 uM after 30 mins by radiometric assay
Sequence of High affinity cGMP-specific 3',5'-cyclic phosphodiesterase 9A (Homo sapiens) (O76083 whole entry): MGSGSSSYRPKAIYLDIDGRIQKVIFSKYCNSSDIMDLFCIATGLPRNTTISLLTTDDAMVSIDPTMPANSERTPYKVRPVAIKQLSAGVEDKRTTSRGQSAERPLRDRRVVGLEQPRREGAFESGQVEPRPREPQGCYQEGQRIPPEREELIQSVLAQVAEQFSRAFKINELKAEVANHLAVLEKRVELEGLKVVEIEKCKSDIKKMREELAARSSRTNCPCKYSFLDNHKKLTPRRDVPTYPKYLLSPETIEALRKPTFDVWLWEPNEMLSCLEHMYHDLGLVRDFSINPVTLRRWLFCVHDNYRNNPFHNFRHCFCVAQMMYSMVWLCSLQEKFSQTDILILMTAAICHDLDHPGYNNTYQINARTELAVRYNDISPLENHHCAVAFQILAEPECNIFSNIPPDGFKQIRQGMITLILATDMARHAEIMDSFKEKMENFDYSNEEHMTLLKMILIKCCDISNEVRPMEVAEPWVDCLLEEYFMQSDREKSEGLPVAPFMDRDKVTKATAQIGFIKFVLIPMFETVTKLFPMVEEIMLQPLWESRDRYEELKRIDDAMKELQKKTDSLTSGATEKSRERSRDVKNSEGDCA

[18] = target: High affinity 3',5'-cyclic-AMP phosphodiesterase 7A (Homo sapiens) (UniProt Q13946); test: Inhibition of PDE7A1 (unknown origin) using [3H]-cAMP as substrate at 10 uM after 30 mins by radiometric assay
Sequence of High affinity 3',5'-cyclic-AMP phosphodiesterase 7A (Homo sapiens) (Q13946 whole entry): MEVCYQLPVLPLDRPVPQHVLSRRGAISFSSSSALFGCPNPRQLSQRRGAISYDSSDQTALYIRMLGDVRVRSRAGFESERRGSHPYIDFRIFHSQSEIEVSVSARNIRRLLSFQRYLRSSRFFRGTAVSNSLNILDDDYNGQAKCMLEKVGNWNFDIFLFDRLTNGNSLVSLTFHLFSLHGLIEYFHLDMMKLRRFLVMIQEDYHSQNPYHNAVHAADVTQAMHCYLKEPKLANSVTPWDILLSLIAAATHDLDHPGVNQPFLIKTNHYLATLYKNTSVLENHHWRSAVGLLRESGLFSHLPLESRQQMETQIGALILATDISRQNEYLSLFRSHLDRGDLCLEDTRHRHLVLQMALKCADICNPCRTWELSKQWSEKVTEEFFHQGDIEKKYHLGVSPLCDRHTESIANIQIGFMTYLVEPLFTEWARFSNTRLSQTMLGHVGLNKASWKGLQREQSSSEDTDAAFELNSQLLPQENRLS

[19] = target: cGMP-specific 3',5'-cyclic phosphodiesterase (Homo sapiens) (UniProt O76074); test: Inhibition of PDE5A (unknown origin) using [3H]-cGMP as substrate at 10 uM after 30 mins by radiometric assay
[20] = target: 3',5'-cyclic-AMP phosphodiesterase 4D (Homo sapiens) (UniProt Q08499); test: Inhibition of PDE4D (unknown origin) using cAMP as substrate at 10 uM after 30 mins
Sequence of 3',5'-cyclic-AMP phosphodiesterase 4D (Homo sapiens) (Q08499 whole entry): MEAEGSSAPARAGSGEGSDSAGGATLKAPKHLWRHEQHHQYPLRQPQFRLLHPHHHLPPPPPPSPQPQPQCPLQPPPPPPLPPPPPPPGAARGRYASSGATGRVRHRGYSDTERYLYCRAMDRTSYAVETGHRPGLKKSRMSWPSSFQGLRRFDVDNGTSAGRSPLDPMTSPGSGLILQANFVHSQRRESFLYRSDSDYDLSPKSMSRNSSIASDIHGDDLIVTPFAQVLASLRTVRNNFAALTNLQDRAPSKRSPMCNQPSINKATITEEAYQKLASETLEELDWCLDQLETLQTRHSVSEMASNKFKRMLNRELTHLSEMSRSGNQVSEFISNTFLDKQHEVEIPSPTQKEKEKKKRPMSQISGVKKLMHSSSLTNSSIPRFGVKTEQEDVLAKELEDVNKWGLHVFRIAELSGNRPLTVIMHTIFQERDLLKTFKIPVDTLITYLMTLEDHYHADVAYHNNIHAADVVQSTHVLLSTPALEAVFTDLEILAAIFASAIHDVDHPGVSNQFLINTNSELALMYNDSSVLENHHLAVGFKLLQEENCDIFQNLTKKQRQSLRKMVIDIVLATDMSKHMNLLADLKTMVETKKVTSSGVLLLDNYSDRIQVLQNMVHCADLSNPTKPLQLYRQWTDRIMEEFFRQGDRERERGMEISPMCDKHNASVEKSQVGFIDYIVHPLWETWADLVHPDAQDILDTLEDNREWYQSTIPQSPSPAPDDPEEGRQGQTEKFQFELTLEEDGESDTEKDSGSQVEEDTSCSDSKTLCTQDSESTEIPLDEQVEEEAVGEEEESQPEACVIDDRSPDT

[21] = target: cGMP-dependent 3',5'-cyclic phosphodiesterase (Homo sapiens) (UniProt O00408); test: Inhibition of PDE2A (unknown origin) using cAMP as substrate at 10 uM after 30 mins by HTRF method
Sequence of cGMP-dependent 3',5'-cyclic phosphodiesterase (Homo sapiens) (O00408 whole entry): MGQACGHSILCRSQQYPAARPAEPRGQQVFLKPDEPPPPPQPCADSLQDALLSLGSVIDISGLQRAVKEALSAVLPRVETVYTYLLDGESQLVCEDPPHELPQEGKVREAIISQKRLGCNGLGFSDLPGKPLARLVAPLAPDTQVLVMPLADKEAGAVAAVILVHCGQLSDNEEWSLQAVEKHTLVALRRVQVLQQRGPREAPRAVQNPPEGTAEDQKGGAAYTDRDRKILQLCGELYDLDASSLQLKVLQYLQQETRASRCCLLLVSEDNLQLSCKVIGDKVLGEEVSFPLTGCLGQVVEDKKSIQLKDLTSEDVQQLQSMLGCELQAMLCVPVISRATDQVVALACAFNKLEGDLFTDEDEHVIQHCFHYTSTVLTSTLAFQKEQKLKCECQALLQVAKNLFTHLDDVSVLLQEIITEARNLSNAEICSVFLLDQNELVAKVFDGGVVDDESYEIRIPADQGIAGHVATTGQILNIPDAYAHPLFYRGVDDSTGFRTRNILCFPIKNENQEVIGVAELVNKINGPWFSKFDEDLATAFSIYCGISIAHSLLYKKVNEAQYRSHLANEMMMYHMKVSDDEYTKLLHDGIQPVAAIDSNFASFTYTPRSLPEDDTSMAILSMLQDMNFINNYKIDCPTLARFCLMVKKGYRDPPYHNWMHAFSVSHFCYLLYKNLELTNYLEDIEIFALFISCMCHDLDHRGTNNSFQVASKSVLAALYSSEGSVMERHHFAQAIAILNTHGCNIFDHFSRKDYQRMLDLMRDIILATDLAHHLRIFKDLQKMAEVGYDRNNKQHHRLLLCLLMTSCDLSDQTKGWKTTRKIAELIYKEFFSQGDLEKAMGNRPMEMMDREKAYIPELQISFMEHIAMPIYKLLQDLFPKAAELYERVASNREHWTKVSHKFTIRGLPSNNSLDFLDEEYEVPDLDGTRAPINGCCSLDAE

[22] = target: Dual specificity calcium/calmodulin-dependent 3',5'-cyclic nucleotide phosphodiesterase 1A (Homo sapiens) (UniProt P54750); test: Inhibition of PDE1A (unknown origin) at 10 uM
Sequence of Dual specificity calcium/calmodulin-dependent 3',5'-cyclic nucleotide phosphodiesterase 1A (Homo sapiens) (P54750 whole entry): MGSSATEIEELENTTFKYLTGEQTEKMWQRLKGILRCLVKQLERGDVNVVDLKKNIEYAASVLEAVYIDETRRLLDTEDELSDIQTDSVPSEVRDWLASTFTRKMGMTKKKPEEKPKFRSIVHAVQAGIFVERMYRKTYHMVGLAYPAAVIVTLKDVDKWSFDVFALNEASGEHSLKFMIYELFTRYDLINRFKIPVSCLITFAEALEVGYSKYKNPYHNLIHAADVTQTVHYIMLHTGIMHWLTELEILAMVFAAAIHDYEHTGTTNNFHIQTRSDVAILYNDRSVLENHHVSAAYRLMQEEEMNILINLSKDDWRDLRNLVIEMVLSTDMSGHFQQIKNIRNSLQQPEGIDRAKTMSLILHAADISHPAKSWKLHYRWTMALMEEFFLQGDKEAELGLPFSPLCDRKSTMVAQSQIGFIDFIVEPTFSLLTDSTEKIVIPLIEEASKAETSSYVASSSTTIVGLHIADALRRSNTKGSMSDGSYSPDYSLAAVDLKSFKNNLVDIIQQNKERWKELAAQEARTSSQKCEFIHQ

[23] = Metabolic stability in rat liver microsomes assessed as compound remaining after 60 mins; format: ADME; settings: read-out: Stability
[24] = Metabolic stability in human liver microsomes assessed as compound remaining after 60 mins; format: ADME; settings: read-out: Stability
[25] = target: cAMP and cAMP-inhibited cGMP 3',5'-cyclic phosphodiesterase 10A (Homo sapiens, UniProt Q9Y233); test: Inhibition of human recombinant PDE10A using [3H]-cAMP/[3H]-cGMP as substrate after 30 mins by radiometric assay
Sequence of cAMP and cAMP-inhibited cGMP 3',5'-cyclic phosphodiesterase 10A (Q9Y233 whole entry): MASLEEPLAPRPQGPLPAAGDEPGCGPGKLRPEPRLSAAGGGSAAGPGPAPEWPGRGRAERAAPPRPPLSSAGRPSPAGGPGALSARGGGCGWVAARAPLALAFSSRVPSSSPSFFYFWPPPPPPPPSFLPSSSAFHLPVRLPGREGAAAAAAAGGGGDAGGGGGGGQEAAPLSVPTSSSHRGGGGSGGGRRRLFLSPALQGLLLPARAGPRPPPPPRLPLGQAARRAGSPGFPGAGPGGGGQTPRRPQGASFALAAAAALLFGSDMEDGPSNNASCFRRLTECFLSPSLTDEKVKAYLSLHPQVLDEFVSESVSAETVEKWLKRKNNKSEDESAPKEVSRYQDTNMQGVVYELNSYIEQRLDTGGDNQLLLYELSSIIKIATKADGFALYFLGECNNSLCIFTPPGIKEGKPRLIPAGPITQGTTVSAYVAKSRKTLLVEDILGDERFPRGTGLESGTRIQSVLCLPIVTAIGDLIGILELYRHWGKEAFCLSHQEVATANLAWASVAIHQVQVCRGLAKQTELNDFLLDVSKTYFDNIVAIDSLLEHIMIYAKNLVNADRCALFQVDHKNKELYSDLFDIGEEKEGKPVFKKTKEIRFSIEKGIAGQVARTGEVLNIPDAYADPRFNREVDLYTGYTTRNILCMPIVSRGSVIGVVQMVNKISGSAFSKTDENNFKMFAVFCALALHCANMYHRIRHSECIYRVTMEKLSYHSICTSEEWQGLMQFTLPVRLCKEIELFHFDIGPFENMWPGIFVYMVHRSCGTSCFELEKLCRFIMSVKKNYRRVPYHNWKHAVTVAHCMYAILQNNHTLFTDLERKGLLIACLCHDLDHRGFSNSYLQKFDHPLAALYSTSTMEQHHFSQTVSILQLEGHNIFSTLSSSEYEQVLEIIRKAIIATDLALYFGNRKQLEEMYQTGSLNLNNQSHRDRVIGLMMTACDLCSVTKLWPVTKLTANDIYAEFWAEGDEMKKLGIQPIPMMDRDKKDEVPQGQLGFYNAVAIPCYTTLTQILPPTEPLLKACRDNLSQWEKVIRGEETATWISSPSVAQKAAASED

`Cc1nc(C2CCOCC2)n2c1sc1cc(OCc3ccc4ccccc4n3)ccc12` gave a concentration at 0.5 h [1] of 370 ng/mL, a concentration at 0.5 h [2] of 672 ng/g and an ED50 [3] of 2.68 mg/kg. For the same compound, the Activity [4] was 76%, the Activity [5] was 47% and the Activity [6] was 26%. For the same compound, the inhibition [7] was “Dose-dependent effect”, the inhibition in vivo at 10 mg/kg [8] was 82% and the inhibition in vivo at 6 mg/kg [9] was 46%. It also gave an inhibition in vivo at 6 mg/kg [10] of 69%, an inhibition in vivo at 10 mg/kg [11] of 83% and an inhibition in vivo at 3 mg/kg [12] of 58%. It also gave an inhibition in vivo at 0.3 mg/kg [13] of 13%, an inhibition in vivo at 30 mg/kg [14] of 75% and a Ratio IC50 [15] greater than 500. For the same compound, the Ratio IC50 [16] was greater than 500, the inhibition [17] was 16.5% and the inhibition [18] was 44%. It also gave an inhibition [19] of 45.5%, an inhibition [20] of 0% and an inhibition [21] of 60.8%. For the same compound, the inhibition [22] was 62.4%, the remaining at 1 h [23] was 65% and the remaining at 1 h [24] was 57%. The IC50 [25] was 7.45 nM.
